What all share (experiment): In Vitro Anti-Bacterial Activity Test (MIC, agar dilution)
Assay type in all cases: cell-based

Assay [1] concerns Enterobacter cloacae 1321E. Particulars: Enterobacter cloacae 1321E; Muller-Hinton agar, 37° C., 18 hours; read-out: MIC. As to the method:
(§1) The above in vitro antibacterial activity test was carried out in accordance with the agar culture medium dilution method (Hoechst 345) by using Muller-Hinton agar medium to determine the minimum inhibitory concentration (MIC).
(§2) The strains having 10^7 C.F.U./ml were inoculated on the culture medium, and the growth of the strains was observed after incubating them at 37° C. for 18 hours, in which ciprofloxacin was used as a control antibacterial agent. In this test, twenty typical strains were used.

Another assay relates to Enterobacter cloacae P99. Particulars: Enterobacter cloacae, P99, 18 h. The procedure:
as §1, §2

A further assay relates to Escherichia coli 078. As to the method:
as §1, §2

The next assay deals with Escherichia coli 1507E. Particulars: Muller-Hinton agar, 37° C. The procedure: as §1, §2
Another assay deals with Escherichia coli DC0. Conditions: Muller-Hinton agar, 37° C., 18 hours, read-out: MIC. The procedure:
as §1, §2

The subject of another assay is Escherichia coli DC2. The procedure:
as §1, §2

A further assay deals with Escherichia coli TEM. Conditions: Muller-Hinton agar, 37° C. As to the method: as §1, §2
The test system of assay [2] is Klebsiella aerogenes 1522E. Particulars: Klebsiella aerogenes 1522E, Muller-Hinton agar, 37° C., 18 hours. As to the method:
as §1, §2

The subject of another assay is Klebsiella oxytoca 1082E. Conditions: Klebsiella oxytoca 1082E; Muller-Hinton agar, 37° C., 18 hours; read-out: MIC. The procedure:
as §1, §2

For assay [3], the system named is Pseudomonas aeruginosa 1592E. Conditions: Muller-Hinton agar, 37° C., 18 hours, read-out: MIC. The procedure: as §1, §2
Assay [4] deals with Pseudomonas aeruginosa 1771M. Conditions: Muller-Hinton agar, 37° C. As to the method:
as §1, §2

In assay [5] the test system is Pseudomonas aeruginosa 1771. Particulars: Pseudomonas aeruginosa 1771; Muller-Hinton agar, 37° C., 18 hours; read-out: MIC. The procedure: as §1, §2
In assay [6] the test system is Pseudomonas aeruginosa 9027. Conditions: Muller-Hinton agar, 37° C., 18 hours, read-out: MIC. The procedure: as §1, §2
Another assay concerns Salmonella typhimurium. Conditions: Salmonella enterica; Salmonella typhimurium; Muller-Hinton agar, 37° C., 18 hours; read-out: MIC. As to the method: as §1, §2
For assay [7], the system named is Staphylococcus aureus 285. Conditions: Staphylococcus aureus 285, Muller-Hinton agar, 37° C., 18 hours. As to the method: as §1, §2
Assay [8] relates to Staphylococcus aureus 503. Conditions: Staphylococcus aureus 503; Muller-Hinton agar, 37° C., 18 hours; read-out: MIC. The procedure:
as §1, §2

Assay [9] deals with Staphylococcus aureus SG511. Particulars: Staphylococcus aureus SG511; Muller-Hinton agar, 37° C., 18 hours; read-out: MIC. The procedure:
as §1, §2

Assay [10] relates to Streptococcus faecium MD8b. Particulars: Enterococcus faecium, Muller-Hinton agar, 37° C., 18 hours, read-out: MIC. The procedure: as §1, §2
For assay [11], the system named is Streptococcus pyogenes 308A. Conditions: Muller-Hinton agar, 37° C., 18 hours, read-out: MIC. The procedure:
as §1, §2

Assay [12] relates to Streptococcus pyogenes 77A. The procedure:
as §1, §2

The mark [13] stands for this setting: Klebsiella aerogenes, 1522E, 18 h, read-out: MIC.
The mark [14] stands for this setting: Pseudomonas aeruginosa, 1771M, 18 h.
Where [15] appears, read: Staphylococcus aureus, 285, 18 h, read-out: MIC.
The mark [16] stands for this setting: Streptococcus pyogenes, 77A, 18 h.
Setting [17] is: Escherichia coli 078, Muller-Hinton agar, 37° C., 18 hours, read-out: MIC.
Where [18] appears, read: Streptococcus pyogenes 77A, Muller-Hinton agar, 37° C., 18 hours, read-out: MIC.

Counter-ions that a name gives are not always drawn. Like-named read-outs stand apart in the source and are kept apart here.

With `CN[C@@H]1CCN(c2c(F)cc3c(=O)c(C(=O)C[N+](=O)[O-])cn(C4CC4)c3c2OC)C1` [Example 64, 1-cyclopropyl-6-fluoro-8-methoxy-7-(3-3R-methylaminopyrrolidin-1-yl)-3-(2-nitroacetyl)-1,4-dihydro-4-oxoquinoline hydrochloride], the MIC in assay [1] came out at 0.049 µg/mL; with Enterobacter cloacae P99, 0.049 µg/mL; against Escherichia coli 078 (Escherichia coli, 078, 18 h), 0.049 µg/mL; against Escherichia coli 1507E (Escherichia coli, 1507E, 18 h), 0.098 µg/mL; in the assay with Escherichia coli DC0 it was 0.391 µg/mL; with Escherichia coli DC2 (Escherichia coli, DC2, 18 h) it was 0.049 µg/mL. The MIC in the assay with Escherichia coli TEM (Escherichia coli, 18 h) was found to be 0.049 µg/mL; in assay [2] (setting [13]), 0.098 µg/mL; in the assay on Klebsiella oxytoca 1082E, 0.007 µg/mL; in assay [3] it was 1.56 µg/mL; in [4] (setting [14]), 0.781 µg/mL; in assay [5], 0.781 µg/mL. Further, the MIC in [6] stood at 1.56 µg/mL; with Salmonella typhimurium, 0.013 µg/mL; in assay [7] (setting [15]), 0.098 µg/mL; in assay [8], 0.098 µg/mL; in assay [9], 0.391 µg/mL; in [10], 0.391 µg/mL. The minimal inhibitory concentration (MIC) in [11] and in assay [12] (setting [16]) was 0.781 µg/mL each time.

Regarding `O=C(C[N+](=O)[O-])c1cn(C2CC2)c2cc(N3CCNCC3)c(F)cc2c1=O` [Example 4, 1-cyclopropyl-6-fluoro-7-(piperazin-1-yl)-3-(2-nitroacetyl)-1,4-dihydro-4-oxoquinoline hydrochloride], the MIC in assay [1] was less than 0.002 µg/mL; in the assay with Enterobacter cloacae P99 it was 0.007 µg/mL; with Escherichia coli 078 (setting [17]) it was less than 0.002 µg/mL; in the assay on Escherichia coli 1507E (Escherichia coli, 1507E, 18 h) it was 0.007 µg/mL; in the assay on Escherichia coli DC0 it was 0.195 µg/mL; with Escherichia coli DC2 (Escherichia coli, DC2, 18 h), 0.391 µg/mL. Further, the MIC against Escherichia coli TEM (Escherichia coli, 18 h) was 0.013 µg/mL; in assay [2] (setting [13]), 0.013 µg/mL; in the assay with Klebsiella oxytoca 1082E, less than 0.002 µg/mL; in assay [3], 0.195 µg/mL; in [4] (setting [14]), 0.098 µg/mL; in [5] it was 0.195 µg/mL. The MIC in assay [6] came to 0.195 µg/mL; in the assay on Salmonella typhimurium, 0.007 µg/mL; in assay [7] (hydrochloride) it was 0.391 µg/mL; in [8], 0.781 µg/mL; in assay [9], 0.195 µg/mL; in assay [10] it was 0.781 µg/mL. Moreover, the minimum inhibitory concentration (MIC) in [11] came out at 3.12 µg/mL; in [12] (setting [16]), 0.781 µg/mL.

With `CCOC(=O)CC(=O)c1cn(C2CC2)c2c(Cl)c(N3CC[C@@H](N)C3)c(F)cc2c1=O` [Example 26, 1-cyclopropyl-6-fluoro-8-chloro-7-(3-3R-aminopyrrolidin-1-yl)-3-(2-ethoxycarbonylacetyl)-1,4-dihydro-4-oxoquinoline hydrochloride], the MIC in assay [1] was 0.004 µg/mL; with Enterobacter cloacae P99 it was 0.013 µg/mL; in the assay on Escherichia coli 078 (setting [17]) it was 0.004 µg/mL; against Escherichia coli 1507E (Escherichia coli, 1507E, 18 h), 0.025 µg/mL; with Escherichia coli DC0, 0.195 µg/mL; with Escherichia coli DC2 (Escherichia coli, DC2, 18 h) it was 0.098 µg/mL. Besides, the minimal inhibitory concentration (MIC) against Escherichia coli TEM (Escherichia coli, 18 h) is 0.013 µg/mL; in assay [2] (setting [13]), 0.049 µg/mL; with Klebsiella oxytoca 1082E, less than 0.002 µg/mL; in [3] it was 0.781 µg/mL; in assay [4] (setting [14]) it was 0.098 µg/mL; in [5], 0.781 µg/mL. For the same compound, the minimum inhibitory concentration (MIC) was found to be 0.781 µg/mL in [6]; 0.007 µg/mL with Salmonella typhimurium; 0.098 µg/mL in [7] (setting [15]); 0.098 µg/mL in [8]; 0.098 µg/mL in [9]; 0.781 µg/mL in [10]. Besides, the values for the minimum inhibitory concentration (MIC) in [11] and in assay [12] (setting [16]) were 1.56 µg/mL and 0.781 µg/mL, respectively.

As to `NC1CCN(c2nc3c(cc2F)c(=O)c(C(=O)C[N+](=O)[O-])cn3-c2ccc(F)cc2F)C1` (stereo not shown) [Example 8, 1-(2,4-difluorophenyl)-6-fluoro-7-(3-aminopyrrolidin-1-yl)-3-(2-nitroacetyl)-1,4-dihydro-4-oxo-1,8-naphthyridinehydrochloride], the MIC in assay [1] was less than 0.002 µg/mL; against Enterobacter cloacae P99, less than 0.002 µg/mL; with Escherichia coli 078 (Escherichia coli, 078, 18 h), 0.007 µg/mL; against Escherichia coli 1507E (Escherichia coli, 1507E, 18 h), 0.007 µg/mL; with Escherichia coli DC0, 0.195 µg/mL; against Escherichia coli DC2 (Escherichia coli, DC2, 18 h) it was 0.013 µg/mL. In addition, the minimum inhibitory concentration (MIC) is less than 0.002 µg/mL in the assay on Escherichia coli TEM (Escherichia coli, 18 h); 0.007 µg/mL in assay [2] (setting [13]); less than 0.002 µg/mL in the assay on Klebsiella oxytoca 1082E; 0.195 µg/mL in [3]; 0.049 µg/mL in assay [4] (setting [14]); 0.391 µg/mL in assay [5]. Moreover, the MIC came to 0.391 µg/mL in assay [6]; 0.007 µg/mL in the assay on Salmonella typhimurium; 0.025 µg/mL in assay [7] (setting [15]); 0.025 µg/mL in [8]; 0.049 µg/mL in assay [9]; 0.391 µg/mL in [10]. Moreover, the values for the minimal inhibitory concentration (MIC) in assay [11] and in [12] (setting [18]) were 0.781 µg/mL and 0.195 µg/mL, respectively.

`N#CCC(=O)c1cn(C2CC2)c2c(Cl)c(N3CCC(N)C3)c(F)cc2c1=O` (stereo not shown) [Example 42, 1-cyclopropyl-6-fluoro-8-chloro-7-(3-aminopyrrolidin-1-yl)-3-(2-cyanoacetyl)-1,4-dihydro-4-oxoquinoline hydrochloride]: the minimal inhibitory concentration (MIC) in assay [1] came to 0.098 µg/mL; against Enterobacter cloacae P99 it was 0.781 µg/mL; against Escherichia coli 078 (Escherichia coli, 078, 18 h), 0.098 µg/mL; against Escherichia coli 1507E (Escherichia coli, 1507E, 18 h), 0.195 µg/mL; in the assay on Escherichia coli DC0, 12.5 µg/mL; in the assay on Escherichia coli DC2 (Escherichia coli DC2, Muller-Hinton agar, 37° C., 18 hours, read-out: MIC), 3.12 µg/mL. The MIC in the assay with Escherichia coli TEM (Escherichia coli, 18 h) came to 0.781 µg/mL; in assay [2] (setting [13]), 1.56 µg/mL; with Klebsiella oxytoca 1082E it was 0.098 µg/mL; in [3] it was 12.5 µg/mL; in assay [4] (setting [14]), 6.25 µg/mL; in assay [5], 6.25 µg/mL. Further, the MIC in [6] stood at 2.5 µg/mL; with Salmonella typhimurium, 1.56 µg/mL; in assay [7] (setting [15]), 3.12 µg/mL; in assay [8], 3.12 µg/mL; in assay [9] it was 6.25 µg/mL; in [10], 12.5 µg/mL. Moreover, the minimal inhibitory concentration (MIC) in [11] turned out to be 25 µg/mL; in assay [12] (setting [18]) it was 12.5 µg/mL.

For the compound `CCOC(=O)C(C(=O)OCC)C(=O)c1cn(C2CC2)c2c(OC)c(N3CC[C@H](NC)C3)c(F)cc2c1=O` [Example 59, 1-cyclopropyl-6-fluoro-8-methoxy-7-(3-3S-methylaminopyrrolidin-1-yl)-3-(2,2-diethoxycarbonylacetyl)-1,4-dihydro-4-oxoquinoline hydrochloride], the MIC in [1] came out at 0.049 µg/mL; in the assay on Enterobacter cloacae P99, 0.049 µg/mL; against Escherichia coli 078 (Escherichia coli, 078, 18 h), 0.049 µg/mL; against Escherichia coli 1507E (Escherichia coli, 1507E, 18 h), 0.391 µg/mL; in the assay on Escherichia coli DC0, 0.781 µg/mL; with Escherichia coli DC2 (Escherichia coli, DC2, 18 h), 0.098 µg/mL. Also, the MIC amounted to 0.049 µg/mL in the assay with Escherichia coli TEM (Escherichia coli, 18 h); 0.098 µg/mL in [2] (setting [13]); 0.007 µg/mL with Klebsiella oxytoca 1082E; 0.781 µg/mL in assay [4] (setting [14]); 1.56 µg/mL in assay [5]; 1.56 µg/mL in assay [6]. Moreover, the MIC amounted to 0.049 µg/mL in the assay on Salmonella typhimurium; 0.098 µg/mL in [7] (setting [15]); 0.098 µg/mL in assay [8]; 0.098 µg/mL in assay [9]; 0.781 µg/mL in [10]; 0.781 µg/mL in assay [11]. This compound yielded an MIC in assay [12] (setting [16]) of 0.781 µg/mL.

Take `O=C(C[N+](=O)[O-])c1cn(C2CC2)c2cc(N3CCNCC3)c(F)cc2c1=O` [Example 5, 1-cyclopropyl-6-fluoro-7-(piperazin-1-yl)-3-(2-nitroacetyl)-1,4-dihydro-4-oxoquinoline trifluoroacetate]: the MIC with Escherichia coli 1507E (18 hours, read-out: MIC) stood at 0.013 µg/mL; with Escherichia coli TEM (18 hours, trifluoroacetate), 0.007 µg/mL; in [2] (trifluoroacetate), 0.025 µg/mL; in assay [4] (18 hours, trifluoroacetate), 0.049 µg/mL; in assay [7] (trifluoroacetate), 0.195 µg/mL.

These data come from US5409933A, “Quinoline derivatives and processes for preparing the same” (priority 1993, dated 1995).
